Laboratory results as given in ChEMBL document CHEMBL1152890, “Synthesis and evaluation of a novel series of heterocyclic oleanolic acid derivatives with anti-osteoclast formation activity” (Eur J Med Chem, 2009).

Key:
Format in all cases: functional
[1] = Antiosteoclast activity in ICR mouse osteoblast like cells co-cultured with bone marrow cells assessed as effect on 1-alpha,25(OH)2D3-induced TRAP-positive osteoclast like multinucleated cell formation at 20 uM after 6 days medium replaced every 2 days relative to control
[2] = Antiosteoclast activity in ICR mouse osteoblast like cells co-cultured with bone marrow cells assessed as effect on 1-alpha,25(OH)2D3-induced TRAP-positive osteoclast like multinucleated cell formation at 2 uM after 6 days medium replaced every 2 days relative to control
[3] = Antiosteoclast activity in ICR mouse osteoblast like cells co-cultured with bone marrow cells assessed as effect on 1-alpha,25(OH)2D3-induced TRAP-positive osteoclast like multinucleated cell formation at 200 uM after 6 days medium replaced every 2 days relative to control
[4] = Antiosteoclast activity in ICR mouse osteoblast like cells co-cultured with bone marrow cells assessed as recovery of 1-alpha,25(OH)2D3-induced TRAP-positive osteoclast like multinucleated cell formation at 20 uM after 6 days drug removal after 2 days relative to control

COC(=O)[C@H](C)NC(=O)[C@]12CCC(C)(C)C[C@H]1C1=CC[C@@H]3[C@@]4(C)Cc5nc6ccccc6nc5C(C)(C)[C@@H]4CC[C@@]3(C)[C@]1(C)CC2
Activity [1]: 31.2% | Activity [2]: 25.7% | Activity [3]: 77% | Activity [4]: 97.7%

CC1(C)CC[C@]2(C(=O)O)CC[C@]3(C)C(=CC[C@@H]4[C@@]5(C)Cc6nc(-c7ccccc7)c(-c7ccccc7)nc6C(C)(C)[C@@H]5CC[C@]43C)[C@@H]2C1
Activity [1]: 28.1% | Activity [2]: 76.2% | Activity [4]: 94.5%

CC(C)C[C@H](NC(=O)[C@]12CCC(C)(C)C[C@H]1C1=CC[C@@H]3[C@@]4(C)Cc5c([nH]c6ccc(Cl)cc56)C(C)(C)[C@@H]4CC[C@@]3(C)[C@]1(C)CC2)C(=O)O
Activity [1]: 0% | Activity [2]: 71.6% | Activity [4]: 0%

CC[C@H](C)[C@H](NC(=O)[C@]12CCC(C)(C)C[C@H]1C1=CC[C@@H]3[C@@]4(C)Cc5c([nH]c6ccc(Cl)cc56)C(C)(C)[C@@H]4CC[C@@]3(C)[C@]1(C)CC2)C(=O)O
Activity [1]: 0% | Activity [2]: 86.9% | Activity [4]: 0%

COC(=O)[C@@H](NC(=O)[C@]12CCC(C)(C)C[C@H]1C1=CC[C@@H]3[C@@]4(C)Cc5nc6ccccc6nc5C(C)(C)[C@@H]4CC[C@@]3(C)[C@]1(C)CC2)C(C)C
Activity [1]: 36.3% | Activity [2]: 37.1% | Activity [3]: 93% | Activity [4]: 94.6%

COC(=O)[C@H](Cc1ccccc1)NC(=O)[C@]12CCC(C)(C)C[C@H]1C1=CC[C@@H]3[C@@]4(C)Cc5nc6ccccc6nc5C(C)(C)[C@@H]4CC[C@@]3(C)[C@]1(C)CC2
Activity [1]: 34.2% | Activity [2]: 53.6% | Activity [3]: 93% | Activity [4]: 93.5%

CC1(C)CC[C@]2(C(=O)NCC(=O)O)CC[C@]3(C)C(=CC[C@@H]4[C@@]5(C)Cc6c([nH]c7ccc(Cl)cc67)C(C)(C)[C@@H]5CC[C@]43C)[C@@H]2C1
Activity [1]: 0% | Activity [2]: 74.2% | Activity [4]: 0%

CC(C)[C@H](NC(=O)[C@]12CCC(C)(C)C[C@H]1C1=CC[C@@H]3[C@@]4(C)Cc5c([nH]c6ccc(Cl)cc56)C(C)(C)[C@@H]4CC[C@@]3(C)[C@]1(C)CC2)C(=O)O
Activity [1]: 0% | Activity [2]: 80% | Activity [4]: 0%

COC(=O)[C@H](CC(C)C)NC(=O)[C@]12CCC(C)(C)C[C@H]1C1=CC[C@@H]3[C@@]4(C)Cc5nc6ccccc6nc5C(C)(C)[C@@H]4CC[C@@]3(C)[C@]1(C)CC2
Activity [1]: 14% | Activity [2]: 55.1% | Activity [3]: 91.2% | Activity [4]: 97.3%

CC[C@H](C)[C@H](NC(=O)[C@]12CCC(C)(C)C[C@H]1C1=CC[C@@H]3[C@@]4(C)Cc5nc6ccccc6nc5C(C)(C)[C@@H]4CC[C@@]3(C)[C@]1(C)CC2)C(=O)O
Activity [1]: 30.6% | Activity [2]: 58.7% | Activity [3]: 95% | Activity [4]: 94.7%

COC(=O)CNC(=O)[C@]12CCC(C)(C)C[C@H]1C1=CC[C@@H]3[C@@]4(C)Cc5nc6ccccc6nc5C(C)(C)[C@@H]4CC[C@@]3(C)[C@]1(C)CC2
Activity [1]: 20.7% | Activity [2]: 31.9% | Activity [3]: 34.1% | Activity [4]: 94.3%

CC1(C)CC[C@]2(C(=O)N[C@@H](Cc3ccccc3)C(=O)O)CC[C@]3(C)C(=CC[C@@H]4[C@@]5(C)Cc6c([nH]c7ccc(Cl)cc67)C(C)(C)[C@@H]5CC[C@]43C)[C@@H]2C1
Activity [1]: 0% | Activity [2]: 77.8% | Activity [4]: 0%

CC1(C)CC[C@]2(C(=O)O)CC[C@]3(C)C(=CC[C@@H]4[C@@]5(C)Cc6nccnc6C(C)(C)[C@@H]5CC[C@]43C)[C@@H]2C1
Activity [1]: 1.8% | Activity [2]: 16.4% | Activity [3]: 97.6% | Activity [4]: 93.2%

NCCCC(O)(P(=O)([O-])O)P(=O)(O)O.[Na+] [ALENDRONATE SODIUM]
Activity [1]: 0% | Activity [2]: 3.5% | Activity [3]: 47.5%
